The record followed here is the RepoRT retention time repository.

Structures are written as SMILES.

This data set can be described thus: HILIC, Waters ACQUITY UPLC BEH Amide, 100 × 2.1 mm, 1.7 µm; A: water + 0.125% formic acid + 10 mM ammonium formate; B: 5% water + 95% acetonitrile + 0.125% formic acid + 10 mM ammonium formate; gradient (min/%B) 0/100 2/100 7.7/70 9.5/40 10.25/30 12.75/100 17/100. Particulars: stereoisomer not certain.
For `NC(Cc1ccc(O)c(O)c1)C(=O)O` (stereo not given) [3,4-Dihydroxyphenylalanine], the LC retention time came out at 8.31 min. Turning to `COc1ccc(C=O)cc1OC` [3,4-Dimethoxybenzaldehyde], the LC retention time was found to be 1.08 min. Consider `CCNC(C)Cc1ccc2c(c1)OCO2` (stereo not given) [3,4-Methylenedioxyethamphetamine], for which the LC retention time turned out to be 2.94 min. Regarding `NC(Cn1cccn1)C(=O)O` (stereo not given) [3-(1-Pyrazolyl)-alanine], the LC retention time is 7.54 min. Take `NC(CC(=O)O)c1ccc(O)cc1` (stereo not given) [3-Amino-3-(4-hydroxyphenyl)propionic acid]: the LC retention time came out at 7.42 min. Take `CC(CN)C(=O)O` (stereo not given) [3-Aminoisobutyric acid]: the LC retention time was found to be 7.4 min. On to `Nc1cc(CC(N)C(=O)O)ccc1O` (stereo not given) [3-Aminotyrosine], for which the LC retention time turned out to be 8.06 min.

`NC(Cc1ccc(O)c(Cl)c1)C(=O)O` (stereo not given) [3-Chlorotyrosine]: the LC retention time turned out to be 7.13 min.

On to `O=c1ccn(C2OC(CO)CC2O)c(=O)[nH]1` (stereo not given) [3-Deoxyuridine], for which the LC retention time is 2.87 min. Consider `NC(N)=NCCC(=O)O` [3-Guanidinopropionic acid], for which the LC retention time amounted to 8.15 min.

For `Nc1c(O)cccc1C(=O)O` [3-Hydroxyanthranilic acid], the LC retention time was 1.48 min. `O=Cc1cccc(O)c1` [3-Hydroxybenzaldehyde]: the LC retention time is 1.18 min. For the compound `CC(O)CC(=O)OC(CC(=O)[O-])C[N+](C)(C)C` (stereo not given) [3-Hydroxybutyrylcarnitine], the LC retention time is 7.62 min.

Take `Nc1c(O)cccc1C(=O)CC(N)C(=O)O` (stereo not given) [3-Hydroxykynurenine]: the LC retention time is 7.35 min. Turning to `O=C(O)Cc1cccc(O)c1` [3-Hydroxyphenylacetic acid], the LC retention time was found to be 1.45 min. With `NC(Cc1cccc(O)c1)C(=O)O` (stereo not given) [3-Hydroxyphenylalanine], the LC retention time amounted to 7.44 min. `O=C(O)C1NCCC1O` (stereo not given) [3-Hydroxyproline]: the LC retention time was determined as 8.17 min. The value for `O=C(O)CCCCCCC(O)CC(=O)O` (stereo not given) [3-Hydroxysebacic acid] was 2.55 min; that for `CCC(O)CC(=O)O` (stereo not given) [3-Hydroxyvaleric acid] was 1.29 min.

Turning to `O=C(O)Cc1c[nH]c2ccccc12` [3-Indoleacetic acid], the LC retention time turned out to be 1.33 min.

For `N#CCc1c[nH]c2ccccc12` [3-Indoleacetonitrile], the LC retention time amounted to 8.02 min.

For `O=C(O)CCc1c[nH]c2ccccc12` [3-Indolepropionic acid], the LC retention time is 1.28 min. Consider `CC(C)=CC(=O)NCC(=O)O` [3-Methylcrotonylglycine], for which the LC retention time worked out at 2.95 min. Turning to `Cn1c(=N)ccn(C2OC(CO)C(O)C2O)c1=O` (stereo not given) [3-Methylcytidine], the LC retention time was found to be 6.99 min.

For `Cn1cncc1CC(N)C(=O)O` (stereo not given) [3-Methylhistidine], the LC retention time came out at 9.41 min. The value for `CC1C(=O)Nc2ccccc21` (stereo not given) [3-Methyloxyindole] was 1.07 min; that for `CSCCCN` [3-Methylthiopropylamine] was 5.16 min; that for `Cn1c(=O)ccn(C2OC(CO)C(O)C2O)c1=O` (stereo not given) [3-Methyluridine] was 1.12 min. Then `NC(Cc1ccc(O)c([N+](=O)[O-])c1)C(=O)O` (stereo not given) [3-Nitrotyrosine], with 6.88 min. For `CCCCCC(O)CC` (stereo not given) [3-Octanol], the LC retention time turned out to be 8.47 min. With `O=C(O)CCP(=O)(O)O` [3-Phosphonopropionic acid], the LC retention time is 8.59 min. The value for `OCc1cccnc1` [3-Pyridinemthanol] was 1.41 min; that for `C[Si](C)(C)CCC(=O)O` [3-Trimethylsilylpropionic acid] was 5.64 min.

With `NC(=O)NCCC(=O)O` [3-Ureidopropionic acid], the LC retention time was 5.6 min. Turning to `CC(C)CCCC(C)C1CCC2C3CC=C4CC(OC(=O)NCCN(C)C)CCC4(C)C3CCC12C` (stereo not drawn) [3-beta-Cholest-5-en-3-yl [2-(dimethylamino)ethyl]carbamate], the LC retention time was 2.34 min. As for `O=c1c(-c2ccc(O)cc2)coc2cc(O)cc(O)c12` [4,5,7-Trihydroxyisoflavone], the LC retention time is 1.27 min. Take `CC(=O)NCCCC(=O)O` [4-Acetamidobutyric acid]: the LC retention time was 2.26 min. `CC(=O)CCCC(=O)O` [4-Acetylbutyric acid]: the LC retention time worked out at 1.24 min. On to `Nc1ccc(C(=O)O)cc1` [4-Aminobenzoic acid], for which the LC retention time amounted to 7.49 min.

On to `NCC1CCC(C(=O)O)CC1` (stereo not given) [4-Aminomethylcyclohexanecarboxylic acid], for which the LC retention time amounted to 6.6 min.

`Nc1ccc(O)cc1` [4-Aminophenol]: the LC retention time amounted to 1.34 min. Turning to `NC(N)=NCCCC(=O)O` [4-Guanidinobutyric acid], the LC retention time worked out at 7.72 min. On to `CCCCCCc1ccc(O)cc1O` [4-Hexylresorcinol], for which the LC retention time stood at 1.63 min. Regarding `CC(=O)CC(C)(C)O` [4-Hydroxy-4-methyl-2-pentanone], the LC retention time was 4.88 min. Turning to `Cc1cc(O)cc(=O)o1` [4-Hydroxy-6-methyl-2-pyrone], the LC retention time came to 1.47 min. Regarding `O=Cc1ccc(O)cc1` [4-Hydroxybenzaldehyde], the LC retention time turned out to be 1.18 min. For the compound `O=C(O)CNC(=O)c1ccc(O)cc1` [4-Hydroxyhippuric acid], the LC retention time was 5.86 min.

For the compound `N#CC(O)c1ccc(O)cc1` (stereo not given) [4-Hydroxymandelonitrile], the LC retention time came to 2.63 min. Turning to `CCCCCC(O)C=CC=O` (stereo not given) [4-Hydroxynonenal], the LC retention time was determined as 1.07 min. Regarding `O=c1cc[nH]c2ccccc12` [4-Hydroxyquinoline], the LC retention time was 1.69 min. As for `Cc1ncsc1CCO` [4-Methyl-5-thiazoleethanol], the LC retention time is 1.21 min. Then `Cc1cc(=O)oc2cc(O)ccc12` [4-Methylumbelliferone], with 1.22 min; and `CC(=O)Oc1ccc2c(C)cc(=O)oc2c1` [4-Methylumbelliferyl acetate], with 1.06 min; and `O=[N+]([O-])c1cc[n+]([O-])c2ccccc12` [4-Nitroquinoline-N-oxide], with 1.14 min. Turning to `Cc1ncc(CO)c(C(=O)O)c1O` [4-Pyridoxic acid], the LC retention time stood at 2.66 min. On to `O=C(O)c1ccnc2ccccc12` [4-Quinolinecarboxylic acid], for which the LC retention time is 4.58 min. Take `O=c1[nH]c(=S)ccn1C1OC(CO)C(O)C1O` (stereo not given) [4-Thiouridine]: the LC retention time is 2.27 min. Regarding `C[N+](C)(C)CCCC(=O)O` [4-Trimethylammoniobutanoic acid], the LC retention time was 7.66 min.

Turning to `CSCC1OC(n2cnc3c(N)ncnc32)C(O)C1O` (stereo not given) [5'-Methylthioadenosine], the LC retention time came to 2.49 min. `COCC1OC(n2cc(C)c(=O)[nH]c2=O)CC1O` (stereo not given) [5'-O-Methylthymidine]: the LC retention time worked out at 1.46 min.

As for `CC1CNC(=O)NC1=O` (stereo not given) [5,6-Dihydro-5-methyluracil], the LC retention time was 1.57 min. With `O=C1CCNC(=O)N1` [5,6-Dihydrouracil], the LC retention time is 1.77 min.

With `Cc1cc2nc[nH]c2cc1C` [5,6-Dimethylbenzimidazole], the LC retention time came to 1.82 min. The value for `NC(=O)c1[nH]cnc1N` [5-Aminoimidazole-4-carboxamide] was 4.18 min. With `NCCCCC(=O)O` [5-Aminovaleric acid], the LC retention time turned out to be 7.24 min.

Turning to `CC(C)CCCC(C)C1CCC2C3C(O)C=C4CC(O)CCC4(C)C3CCC12C` (stereo not drawn) [5-Cholesten-3-beta-7-alpha-diol], the LC retention time came out at 3.36 min. On to `O=c1ncc(F)c[nH]1` [5-Fluro-2-pyrimidone], for which the LC retention time stood at 1.77 min. For `Nc1[nH]c(=O)ncc1F` [5-Flurocytosine], the LC retention time amounted to 4.62 min. On to `O=C(O)Cc1c[nH]c2ccc(O)cc12` [5-Hydroxy-3-indoleacetic acid], for which the LC retention time was 1.78 min. Regarding `Nc1nc(=O)n(C2OC(CO)C(O)C2O)cc1CO` (stereo not given) [5-Hydroxymethylcytidine], the LC retention time stood at 7.54 min.

For `Nc1[nH]c(=O)ncc1CO` [5-Hydroxymethylcytosine], the LC retention time stood at 6.9 min.

In the case of `NC(Cc1c[nH]c2ccc(O)cc12)C(=O)O` (stereo not given) [5-Hydroxytryptophan], the LC retention time came out at 7.48 min. As to `OCCc1c[nH]c2ccc(O)cc12` [5-Hydroxytryptophol], the LC retention time is 5.93 min. As for `COc1ccc2[nH]cc(CC(=O)O)c2c1` [5-Methoxy-3-indoleacetic acid], the LC retention time was 1.32 min. As to `COc1c2ccoc2cc2oc(=O)ccc12` [5-Methoxypsoralen], the LC retention time came to 1.07 min. The value for `COc1ccc2[nH]cc(CCN)c2c1` [5-Methoxytryptamine] was 4.99 min; that for `COc1ccc2[nH]cc(CCO)c2c1` [5-Methoxytryptophol] was 1.18 min. Then `COc1cn(C2OC(CO)C(O)C2O)c(=O)[nH]c1=O` (stereo not given) [5-Methoxyuridine], with 4.72 min; and `Cc1cn(C2OC(CO)C(O)C2O)c(=S)[nH]c1=O` (stereo not given) [5-Methyl-2-thiouridine], with 1.98 min; and `Cc1cn(C2OC(CO)CC2O)c(=O)[nH]c1=O` (stereo not given) [5-Methyl-3-deoxyuridine], with 2.6 min.

As for `Cc1cn(C2OC(CO)C(O)C2O)c(=O)nc1N` (stereo not given) [5-Methylcytidine], the LC retention time is 6.39 min. Then `Cc1cnc(=O)[nH]c1N` [5-Methylcytosine], with 6.62 min. Regarding `Cc1cn(C2OC(CO)C(O)C2O)c(=O)[nH]c1=O` (stereo not given) [5-Methyluridine], the LC retention time stood at 4.19 min. Consider `CCCCCCCCCOc1ccc2[nH]cc(CCN)c2c1` [5-Nonyloxytryptamine], for which the LC retention time was 3.4 min. On to `Nc1ccc2cn[nH]c2c1` [6-Aminoindazole], for which the LC retention time is 1.26 min.
